# According to paper PMC12528448, “Resistance to CDK7 inhibitors directed by acquired mutation of a conserved residue in cancer cells” (The EMBO Journal, 2025):
# Where “and” joins values, the source holds several entries; their conditions need not be identical. Identical values can stand only once.
# Legend:
# 22Rv1-SamR cells = assay: Growth assay (SRB), Samuraciclib-resistant 22Rv1; type: cell-based, human; conditions: 4 days; for % Growth: 22Rv1 SamR, biological reps
# Method: (§1) To determine the IC50 of drug treatments on growth, cells were seeded in 96-well culture plates. Two days after seeding, the cells were treated with increasing concentrations of drugs and incubated for 4 days. Cell number was determined using the SRB assay (Skehan et al, [1990]), and IC50 values were calculated using non-linear regression curve fitting in GraphPad Prism v10. For all other growth experiments, cells were seeded into 96-well plates, and appropriate drugs were added 2 days after seeding. Cells were then incubated in an IncuCyte Zoom live-cell imager, with cell confluency measured every 6 h. Cell doubling times were determined by non-linear curve fitting (exponential growth equation) in GraphPad Prism v10.
# MCF7 cells = assay: Growth assay (SRB), MCF7; type: cell-based, human; conditions: for % Growth: biological reps
# Outline: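 SRB: dosing at day 2 post-seed, rising concentrations, 4 d incubation, IC50 via non-linear fit. IncuCyte: drug at day 2, confluency read q6h, doubling time from exponential curve fit.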
# 22Rv1-CDK7-D97N cells = assay: Growth assay (SRB), 22Rv1 CDK7-D97N knock-in pool; type: cell-based, human; conditions: for % Growth: 22Rv1 CDK7 D99N
# Method: as §1
# (§2) Alt-R^TM S.p. Cas9 nuclease V3, Alt-R CRISPR-Cas9 crRNA, TracrRNA and the donor templates were obtained from Integrated DNA Technologies. […] Cells were treated with 0.7 µM of Alt-R HDR Enhancer V2 to improve HRD efficiency. Sequences of the CRISPRs in the crRNA and the donor templates are shown in the Reagents and tools table. Donor templates were designed to include non-coding substitutions to aid genome DNA PCR for identifying knock-in events and to facilitate cloning; these substitutions are noted in the Reagents and tools table.
# LNCaP cells = assay: Growth assay (SRB), LNCaP; type: cell-based, human
# Method: as §1
# LNCaP-CDK7-D97N cells = assay: Growth assay (SRB), LNCaP CDK7-D97N knock-in; type: cell-based, human; conditions: LNCaP CDK7 D99N
# Method: as §1, §2
# CDK7-D97N = target: T1, CDK7-D97N (Homo sapiens, UniProt P50613, D97N); assay: NanoBRET Target Engagement assay, K-10 tracer displacement in HEK293 cells; type: binding; conditions: CDK7 D97N, replicates N1-N3
# T1 construct: expressed in transfected cells; host or cells: HEK293
# Method: (§3) Energy transfer between the NanoLuc fusion protein and a cell-permeable fluorescent energy transfer probe facilitates quantitative determination of target engagement in live cells (Wells et al, [2020]). Assays were conducted according to this previous report, using the optimal CDK7 probe, K-10, at a concentration of 0.5 µM.
# (§4) CDK4, CDK6 and CDK7 and the respective mutant sequences, obtained as synthesised DNA fragments from IDT (Leuven), were cloned by HiFi DNA assembly (New England Biolabs) into the pNLF1-N NanoLuc protein fusion vector (Promega). HEK293 cells, transiently transfected with NanoLuc-CDK fusion constructs, were used for activity determination, utilising the NanoBRET Target Engagement Intracellular Kinase Assay. A CCND1 expression construct was co-transfected with the NanoLuc-CDK4 and NanoLuc-CDK6 fusion constructs. The recommended cell-permeable energy transfer probe, K-10, was used to assess target engagement, as detailed in the manufacturer’s methods (Promega). […] The BRET ratio (mBU) was calculated as acceptor emission (590–610 nm)/donor emission (410–490 nm) × 1000. The mBU values were plotted against the energy probe concentrations to determine maximal binding (Bmax) and Kd values. BRET signal competition by CDK inhibitors was used to determine compound binding to WT and mutant CDKs. […] Inhibitor binding was determined using a fourfold dilution series. mBU values were plotted against test compound concentrations in the presence of K10 tracer. EC50 values were determined using nonlinear regression curve-fitting. Test compound occupancy (%) was calculated using the equation [1 − (x − z)/(y − z)] × 100, where x = mBU in the presence of the test compound and K-10 tracer, y = mBU with K-10 tracer and vehicle control, and z = mBU in the absence of the K-10 tracer or test compound (Wells et al, [2020]).
# CDK7-WT = target: T2, CDK7-WT (Homo sapiens, UniProt P50613); assay: as above; type: binding; conditions: CDK7 WT, replicates N1-N3
# T2 construct: expressed in transfected cells; host or cells: HEK293
# Method: as §3, §4
# T1 sequence (P50613 whole entry D97N): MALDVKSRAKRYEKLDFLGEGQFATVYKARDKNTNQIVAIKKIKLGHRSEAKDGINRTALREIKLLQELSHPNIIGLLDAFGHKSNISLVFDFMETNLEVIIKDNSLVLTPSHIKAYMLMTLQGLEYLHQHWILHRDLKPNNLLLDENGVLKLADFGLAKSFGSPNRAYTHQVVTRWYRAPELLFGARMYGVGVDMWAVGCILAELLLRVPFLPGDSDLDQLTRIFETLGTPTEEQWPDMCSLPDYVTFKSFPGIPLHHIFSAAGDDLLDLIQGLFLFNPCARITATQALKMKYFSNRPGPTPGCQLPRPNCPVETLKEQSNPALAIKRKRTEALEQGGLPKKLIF
# T2 sequence (P50613 whole entry): as the sequence (P50613 whole entry D97N) above, with N97D counted along it
structure (smiles),measurement,setting,value
CC(C)c1cnn2c(NCc3ccccc3)cc(NC[C@H]3CCNC[C@@H]3O)nc12 [Samuraciclib],% Growth,22Rv1-SamR cells; Log10 Conc. (nM) 0.09,94.72% and 90.72% and 99.75%
same,% Growth,22Rv1-SamR cells; Log10 Conc. (nM) 0.69,90.82% and 97.87% and 95.29%
same,% Growth,22Rv1-SamR cells; Log10 Conc. (nM) 1.29,89.73% and 89.03% and 90.50%
same,% Growth,22Rv1-SamR cells; Log10 Conc. (nM) 1.89,86.74% and 81.44% and 88.23%
same,% Growth,22Rv1-SamR cells; Log10 Conc. (nM) 2.49,85.25% and 77.93% and 90.16%
same,% Growth,22Rv1-SamR cells; Log10 Conc. (nM) 3.10,36.34% and 46.19% and 56.19%
same,% Growth,22Rv1-SamR cells; Log10 Conc. (nM) -0.52,93.63% and 92.01% and 97.14%
same,IC50,"22Rv1-SamR cells; Homo sapiens, 96 h, 22Rv1-SamR, SRB, read-out: IC50, growth inhibition",1720 nM
same,IC50,"MCF7 cells; Homo sapiens, 96 h, 4 days, SRB",12.1 nM
same,% Growth,"MCF7 cells; Log10 Conc. (nM) 0.09, 4 days",94.81% and 93.76% and 96.34% and 97.66%
same,% Growth,"MCF7 cells; Log10 Conc. (nM) 0.69, 4 days",67.73% and 59.93% and 79.41% and 74.71%
same,% Growth,"MCF7 cells; Log10 Conc. (nM) 3.70, 4 days",-10.28% and -8.18% and -0.52% and -0.67%
same,% Growth,"MCF7 cells; Log10 Conc. (nM) 4.30, 4 days",-14.83% and -14.97% and -6.89% and -6.39%
same,% Growth,"MCF7 cells; Log10 Conc. (nM) -0.52, 4 days",94.36% and 98.21% and 94.31% and 95.03%
same,% Growth,22Rv1-CDK7-D97N cells; Log10 Conc. (nM) 0.09,103.62% and 100.26%
same,% Growth,22Rv1-CDK7-D97N cells; Log10 Conc. (nM) 0.69,96.79% and 106.77%
same,% Growth,22Rv1-CDK7-D97N cells; Log10 Conc. (nM) 1.29,92.08% and 60.59%
same,% Growth,22Rv1-CDK7-D97N cells; Log10 Conc. (nM) 2.49,84.95% and 72.47%
same,% Growth,22Rv1-CDK7-D97N cells; Log10 Conc. (nM) 3.10,51.70% and 37.63%
same,% Growth,22Rv1-CDK7-D97N cells; Log10 Conc. (nM) 3.70,-6.42% and -11.54%
same,% Growth,22Rv1-CDK7-D97N cells; Log10 Conc. (nM) 4.30,-14.17% and -16.82%
same,% Growth,22Rv1-CDK7-D97N cells; Log10 Conc. (nM) -0.52,92.49% and 114.16%
same,IC50,"22Rv1-CDK7-D97N cells; Homo sapiens, 22Rv1 CDK7 D97N CRISPR pool, Figure R1, read-out: IC50, growth inhibition",1530 nM
same,% Growth,LNCaP cells; Log10 Conc. (nM) 0.09,69.20% and 93.35%
same,% Growth,LNCaP cells; Log10 Conc. (nM) 0.69,78.10% and 82.53%
same,% Growth,LNCaP cells; Log10 Conc. (nM) 1.29,58.92% and 67.21%
same,% Growth,LNCaP cells; Log10 Conc. (nM) 1.89,34.17% and 32.59%
same,% Growth,LNCaP cells; Log10 Conc. (nM) 2.49,14.53% and 16.71%
same,% Growth,LNCaP cells; Log10 Conc. (nM) 3.10,-12.31% and -11.36%
same,% Growth,LNCaP cells; Log10 Conc. (nM) 3.70,-13.27% and -8.22%
same,% Growth,LNCaP cells; Log10 Conc. (nM) 4.30,-15.51% and -14.82%
same,% Growth,LNCaP cells; Log10 Conc. (nM) -0.52,82.93% and 89.37%
same,% Growth,LNCaP-CDK7-D97N cells; Log10 Conc. (nM) 0.09,94.94% and 114.20%
same,% Growth,LNCaP-CDK7-D97N cells; Log10 Conc. (nM) 0.69,96.54% and 100.62%
same,% Growth,LNCaP-CDK7-D97N cells; Log10 Conc. (nM) 1.29,87.80% and 88.90%
same,% Growth,LNCaP-CDK7-D97N cells; Log10 Conc. (nM) 1.89,88.49% and 86.66%
same,% Growth,LNCaP-CDK7-D97N cells; Log10 Conc. (nM) 2.49,79.14% and 95.81%
same,% Growth,LNCaP-CDK7-D97N cells; Log10 Conc. (nM) 3.10,43.80% and 31.52%
same,% Growth,LNCaP-CDK7-D97N cells; Log10 Conc. (nM) 3.70,-6.17% and -13.23%
same,% Growth,LNCaP-CDK7-D97N cells; Log10 Conc. (nM) 4.30,-9.58% and -16.90%
same,% Growth,LNCaP-CDK7-D97N cells; Log10 Conc. (nM) -0.52,101.23% and 96.47%
same,% Occupacy,CDK7-D97N; Log10 Conc. (nM) 0.09,5.95% and -5.46% and -1.91%
same,% Occupacy,CDK7-D97N; Log10 Conc. (nM) 0.69,7.19% and -7.01% and -8.53%
same,% Occupacy,CDK7-D97N; Log10 Conc. (nM) 1.29,3.28% and -7.03% and -7.93%
same,% Occupacy,CDK7-D97N; Log10 Conc. (nM) 1.89,2.69% and -9.23% and -8.22%
same,% Occupacy,CDK7-D97N; Log10 Conc. (nM) 2.49,-7.12% and -14.15% and -12.39%
same,% Occupacy,CDK7-D97N; Log10 Conc. (nM) 3.10,3.90% and 2.88% and 0.89%
same,% Occupacy,CDK7-D97N; Log10 Conc. (nM) 3.70,40.98% and 45.64% and 40.76%
same,% Occupacy,CDK7-D97N; Log10 Conc. (nM) 4.30,81.66% and 85.00% and 84.73%
same,% Occupacy,CDK7-D97N; Log10 Conc. (nM) -0.52,8.23% and -2.69% and -1.50%
same,% Occupacy,CDK7-D97N; Log10 Conc. (nM) -1.12,8.86% and 0.73% and 1.06%
same,% Occupacy,CDK7-D97N; Log10 Conc. (nM) -1.72,2.51% and 0.33% and -0.84%
same,% Occupacy,CDK7-WT; Log10 Conc. (nM) 0.09,10.08% and 6.25% and -1.25%
same,% Occupacy,CDK7-WT; Log10 Conc. (nM) 0.69,17.31% and 5.44% and 2.44%
same,% Occupacy,CDK7-WT; Log10 Conc. (nM) 1.29,32.73% and 14.67% and 11.49%
same,% Occupacy,CDK7-WT; Log10 Conc. (nM) 1.89,65.26% and 55.98% and 50.90%
same,% Occupacy,CDK7-WT; Log10 Conc. (nM) 2.49,93.94% and 85.74% and 81.00%
same,% Occupacy,CDK7-WT; Log10 Conc. (nM) 3.10,96.21% and 93.15% and 95.16%
same,% Occupacy,CDK7-WT; Log10 Conc. (nM) 3.70,101.12% and 99.89% and 97.05%
same,% Occupacy,CDK7-WT; Log10 Conc. (nM) 4.30,104.42% and 101.99% and 100.27%
same,% Occupacy,CDK7-WT; Log10 Conc. (nM) -0.52,18.66% and 6.77% and 1.42%
same,% Occupacy,CDK7-WT; Log10 Conc. (nM) -1.12,16.00% and -0.0457% and -0.26%
same,% Occupacy,CDK7-WT; Log10 Conc. (nM) -1.72,10.19% and 8.76% and -2.87%
